# Laboratory results published in patent US20230301300A1, “HERBICIDAL COMPOSITIONS” (SYNGENTA CROP PROTECTION AG, priority 2020, published 2023).
# What was measured:
# Assay in all cases: B2 Post-Emergence Efficacy - Test 2
# Type in all cases: in vivo
# [1] = test system: Sorghum bicolour (SORVU); conditions: 15 days after application, 0=no damage, 100=total kill
# Method in brief: (§1)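 Sow in standard soil; grow 12 d under controlled conditions, 65% humidity, 16 h light, 24/18 °C or 20/16 °C. Spray with water-diluted IF50 formulation, 0.2% v/v Genapol X080. Water twice daily. Assess injury at 15 d (0–100).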
# [2] = test system: Zea mays (ZEAMX); conditions: 15 days after application; for Herbicidal activity ZEAMX: 0-100 scale; for Herbicidal activity on a 0-100 scale, ZEAMX: 0=no damage, 100=total kill
# Method in brief: as §1
# [3] = test system: Xanthium strumarium (XANST); conditions: 15 days after application, 0-100 scale
# Method in brief: as §1
# [4] = test system: Lolium perenne (LOLPE); conditions: 15 days after application, 0-100 scale
# Method in brief: as §1
# [5] = test system: Galium aparine (GALAP); conditions: 15 days after application, 0-100 scale
# Method in brief: as §1
# [6] = test system: Sida spinosa (SIDSP); conditions: 15 days after application, 0-100 scale
# Method in brief: as §1
# [7] = test system: Ipomoea hederacea (IPOHE); conditions: 15 days after application, 0-100 scale
# Method in brief: as §1
# [8] = test system: Brassica napus (BRSNN); conditions: 15 days after application, 0-100 scale
# Method in brief: as §1
# [9] = test system: Euphorbia hetrophylla (EPHHL); conditions: 15 days after application, 0-100 scale
# Method in brief: as §1
# [10] = test system: Bromus tectorum (BROTE); conditions: 15 days after application, 0-100 scale
# Method in brief: as §1
# [11] = test system: Sinapis arvensis (SINAR); conditions: 15 days after application, 0-100 scale
# Method in brief: as §1
# [12] = test system: Glycine max (GLXMA); conditions: 15 days after application; for Herbicidal activity GLXMA: 0-100 scale; for Herbicidal activity on a 0-100 scale, GLXMA: 0=no damage, 100=total kill
# Method in brief: as §1
# [13] = test system: Avena fatua (AVEFA); conditions: 15 days after application, 0-100 scale
# Method in brief: as §1
# [14] = test system: Poa annua (POAAN); conditions: 15 days after application, 0-100 scale
# Method in brief: as §1
# [15] = test system: Beta vulgaris (BEAVA); conditions: 15 days after application, 0-100 scale
# Method in brief: as §1
# [16] = test system: Eleisine indica (ELEIN); conditions: 15 days after application, 0=no damage, 100=total kill
# Method in brief: as §1
# [17] = test system: Panicum miliaceum (PANMI); conditions: 15 days after application, 0=no damage, 100=total kill
# Method in brief: as §1
smiles,measurement,setting,value
"Cc1nn(C)c(=O)c(-c2c(F)ccc(Cl)c2CCc2ccc(F)cc2)c1O [Compound 1.048, 4-[3-chloro-6-fluoro-2-[2-(4-fluorophenyl)ethyl]phenyl]-5-hydroxy-2,6-dimethyl-pyridazin-3-one]","Herbicidal activity on a 0-100 scale, SORVU",[1]; 15 g/Ha,0
same,"Herbicidal activity on a 0-100 scale, SORVU",[1]; 30 g/Ha,30
same,"Herbicidal activity on a 0-100 scale, SORVU",[1]; 60 g/Ha,70
same,"Herbicidal activity on a 0-100 scale, SORVU",[1]; 125 g/Ha,70
same,"Herbicidal activity on a 0-100 scale, SORVU",[1]; 250 g/Ha,80
same,"Herbicidal activity on a 0-100 scale, SORVU",[1]; 500 g/Ha,90
same,Herbicidal activity ZEAMX,[2]; 15 g/Ha,0
same,"Herbicidal activity on a 0-100 scale, ZEAMX",[2]; 15 g/Ha,0
same,Herbicidal activity ZEAMX,[2]; 30 g/Ha,10
same,"Herbicidal activity on a 0-100 scale, ZEAMX",[2]; 30 g/Ha,10
same,Herbicidal activity ZEAMX,[2]; 60 g/Ha,50
same,"Herbicidal activity on a 0-100 scale, ZEAMX",[2]; 60 g/Ha,50
same,Herbicidal activity ZEAMX,[2]; 125 g/Ha,50
same,"Herbicidal activity on a 0-100 scale, ZEAMX",[2]; 125 g/Ha,50
same,Herbicidal activity ZEAMX,[2]; 250 g/Ha,70
same,"Herbicidal activity on a 0-100 scale, ZEAMX",[2]; 250 g/Ha,70
same,Herbicidal activity ZEAMX,[2]; 500 g/Ha,100
same,"Herbicidal activity on a 0-100 scale, ZEAMX",[2]; 500 g/Ha,100
same,Herbicidal activity XANST,[3]; 60 g/Ha,90
same,Herbicidal activity XANST,[3]; 125 g/Ha,90
same,Herbicidal activity XANST,[3]; 250 g/Ha,90
same,Herbicidal activity XANST,[3]; 500 g/Ha,100
same,Herbicidal activity LOLPE,[4]; 15 g/Ha,20
same,Herbicidal activity LOLPE,[4]; 30 g/Ha,40
same,Herbicidal activity LOLPE,[4]; 60 g/Ha,90
same,Herbicidal activity LOLPE,[4]; 125 g/Ha,90
same,Herbicidal activity LOLPE,[4]; 250 g/Ha,90
same,Herbicidal activity LOLPE,[4]; 500 g/Ha,90
same,Herbicidal activity GALAP,[5]; 15 g/Ha,20
same,Herbicidal activity GALAP,[5]; 30 g/Ha,30
same,Herbicidal activity GALAP,[5]; 60 g/Ha,50
same,Herbicidal activity GALAP,[5]; 125 g/Ha,60
same,Herbicidal activity GALAP,[5]; 250 g/Ha,60
same,Herbicidal activity GALAP,[5]; 500 g/Ha,80
same,Herbicidal activity SIDSP,[6]; 15 g/Ha,80
same,Herbicidal activity SIDSP,[6]; 30 g/Ha,80
same,Herbicidal activity SIDSP,[6]; 60 g/Ha,80
same,Herbicidal activity SIDSP,[6]; 125 g/Ha,90
same,Herbicidal activity SIDSP,[6]; 250 g/Ha,90
same,Herbicidal activity SIDSP,[6]; 500 g/Ha,90
same,Herbicidal activity IPOHE,[7]; 15 g/Ha,70
same,Herbicidal activity IPOHE,[7]; 30 g/Ha,80
same,Herbicidal activity IPOHE,[7]; 60 g/Ha,100
same,Herbicidal activity IPOHE,[7]; 125 g/Ha,100
same,Herbicidal activity IPOHE,[7]; 250 g/Ha,100
same,Herbicidal activity IPOHE,[7]; 500 g/Ha,100
same,Herbicidal activity BRSNN,[8]; 15 g/Ha,90
same,Herbicidal activity BRSNN,[8]; 30 g/Ha,90
same,Herbicidal activity BRSNN,[8]; 60 g/Ha,90
same,Herbicidal activity BRSNN,[8]; 125 g/Ha,90
same,Herbicidal activity BRSNN,[8]; 250 g/Ha,90
same,Herbicidal activity BRSNN,[8]; 500 g/Ha,90
same,Herbicidal activity EPHHL,[9]; 15 g/Ha,50
same,Herbicidal activity EPHHL,[9]; 30 g/Ha,70
same,Herbicidal activity EPHHL,[9]; 60 g/Ha,90
same,Herbicidal activity EPHHL,[9]; 125 g/Ha,90
same,Herbicidal activity EPHHL,[9]; 250 g/Ha,100
same,Herbicidal activity EPHHL,[9]; 500 g/Ha,100
same,Herbicidal activity BROTE,[10]; 15 g/Ha,0
same,Herbicidal activity BROTE,[10]; 30 g/Ha,10
same,Herbicidal activity BROTE,[10]; 60 g/Ha,20
same,Herbicidal activity BROTE,[10]; 125 g/Ha,50
same,Herbicidal activity BROTE,[10]; 250 g/Ha,60
same,Herbicidal activity BROTE,[10]; 500 g/Ha,70
same,Herbicidal activity SINAR,[11]; 15 g/Ha,40
same,Herbicidal activity SINAR,[11]; 30 g/Ha,80
same,Herbicidal activity SINAR,[11]; 60 g/Ha,80
same,Herbicidal activity SINAR,[11]; 125 g/Ha,90
same,Herbicidal activity SINAR,[11]; 250 g/Ha,90
same,Herbicidal activity SINAR,[11]; 500 g/Ha,90
same,Herbicidal activity GLXMA,[12]; 15 g/Ha,70
same,"Herbicidal activity on a 0-100 scale, GLXMA",[12]; 15 g/Ha,70
same,Herbicidal activity GLXMA,[12]; 30 g/Ha,80
same,"Herbicidal activity on a 0-100 scale, GLXMA",[12]; 30 g/Ha,80
same,Herbicidal activity GLXMA,[12]; 60 g/Ha,90
same,"Herbicidal activity on a 0-100 scale, GLXMA",[12]; 60 g/Ha,90
same,Herbicidal activity GLXMA,[12]; 125 g/Ha,90
same,"Herbicidal activity on a 0-100 scale, GLXMA",[12]; 125 g/Ha,90
same,Herbicidal activity GLXMA,[12]; 250 g/Ha,90
same,"Herbicidal activity on a 0-100 scale, GLXMA",[12]; 250 g/Ha,90
same,Herbicidal activity GLXMA,[12]; 500 g/Ha,100
same,"Herbicidal activity on a 0-100 scale, GLXMA",[12]; 500 g/Ha,100
same,Herbicidal activity AVEFA,[13]; 15 g/Ha,10
same,Herbicidal activity AVEFA,[13]; 30 g/Ha,30
same,Herbicidal activity AVEFA,[13]; 60 g/Ha,60
same,Herbicidal activity AVEFA,[13]; 125 g/Ha,80
same,Herbicidal activity AVEFA,[13]; 250 g/Ha,90
same,Herbicidal activity AVEFA,[13]; 500 g/Ha,90
same,Herbicidal activity POAAN,[14]; 15 g/Ha,30
same,Herbicidal activity POAAN,[14]; 30 g/Ha,30
same,Herbicidal activity POAAN,[14]; 60 g/Ha,80
same,Herbicidal activity POAAN,[14]; 125 g/Ha,80
same,Herbicidal activity POAAN,[14]; 250 g/Ha,90
same,Herbicidal activity POAAN,[14]; 500 g/Ha,90
same,Herbicidal activity BEAVA,[15]; 15 g/Ha,70
same,Herbicidal activity BEAVA,[15]; 30 g/Ha,80
same,Herbicidal activity BEAVA,[15]; 60 g/Ha,80
same,Herbicidal activity BEAVA,[15]; 125 g/Ha,90
same,Herbicidal activity BEAVA,[15]; 250 g/Ha,90
same,Herbicidal activity BEAVA,[15]; 500 g/Ha,90
same,"Herbicidal activity on a 0-100 scale, ELEIN",[16]; 15 g/Ha,0
same,"Herbicidal activity on a 0-100 scale, ELEIN",[16]; 30 g/Ha,50
same,"Herbicidal activity on a 0-100 scale, ELEIN",[16]; 60 g/Ha,60
same,"Herbicidal activity on a 0-100 scale, ELEIN",[16]; 125 g/Ha,60
same,"Herbicidal activity on a 0-100 scale, ELEIN",[16]; 250 g/Ha,80
same,"Herbicidal activity on a 0-100 scale, ELEIN",[16]; 500 g/Ha,80
same,"Herbicidal activity on a 0-100 scale, PANMI",[17]; 15 g/Ha,0
same,"Herbicidal activity on a 0-100 scale, PANMI",[17]; 30 g/Ha,20
same,"Herbicidal activity on a 0-100 scale, PANMI",[17]; 60 g/Ha,30
same,"Herbicidal activity on a 0-100 scale, PANMI",[17]; 125 g/Ha,80
same,"Herbicidal activity on a 0-100 scale, PANMI",[17]; 250 g/Ha,100
same,"Herbicidal activity on a 0-100 scale, PANMI",[17]; 500 g/Ha,100
